Data on 20 compounds can be found in patent publication US11453647B2, “Benzimidazole derivatives as adenosine receptor antagonists” (Merck Patent GmbH, priority 2017, dated 2022).

Holding throughout (type): cell-based
The target in one test is T1, human A2A receptor (Homo sapiens, UniProt P29274).
T1 construct: expressed in transfected cells; host or cells: HEK293
Description: functional cAMP (HTRF) assay, recombinant HEK293 cells expressing human A2A receptor, agonist NECA.

The target in another test is T2, human A3 receptor (Homo sapiens, UniProt P0DMS8).
T2 construct: expressed in transfected cells; host or cells: CHO
T2 sequence (P0DMS8 1-318): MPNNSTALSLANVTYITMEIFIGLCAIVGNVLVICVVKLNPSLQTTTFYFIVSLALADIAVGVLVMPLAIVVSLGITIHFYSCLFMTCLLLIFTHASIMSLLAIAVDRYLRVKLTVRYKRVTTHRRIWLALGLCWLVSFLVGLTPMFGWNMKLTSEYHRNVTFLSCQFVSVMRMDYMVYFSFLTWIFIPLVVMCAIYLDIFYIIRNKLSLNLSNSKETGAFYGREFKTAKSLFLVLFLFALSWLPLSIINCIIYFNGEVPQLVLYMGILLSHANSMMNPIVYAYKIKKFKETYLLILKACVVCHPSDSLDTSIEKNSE
Description: functional cAMP (HTRF) assay, recombinant CHO cells expressing human A3 receptor, forskolin, agonist IB-MECA. The gist of the method:
(§1)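 Recombinant CHO cells expressing A1 or A3 receptor (Gi-coupled) were stimulated with forskolin together with test compound and agonist (CPA for A1, IB-MECA for A3), incubated 30 min, then cellular cAMP was read by HTRF. Data were normalized to inhibitor control and DMSO neutral control, then curve-fitted.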

The target of another test is T3, A2B receptors (Homo sapiens, UniProt P29275).
T3 sequence (P29275 1-332): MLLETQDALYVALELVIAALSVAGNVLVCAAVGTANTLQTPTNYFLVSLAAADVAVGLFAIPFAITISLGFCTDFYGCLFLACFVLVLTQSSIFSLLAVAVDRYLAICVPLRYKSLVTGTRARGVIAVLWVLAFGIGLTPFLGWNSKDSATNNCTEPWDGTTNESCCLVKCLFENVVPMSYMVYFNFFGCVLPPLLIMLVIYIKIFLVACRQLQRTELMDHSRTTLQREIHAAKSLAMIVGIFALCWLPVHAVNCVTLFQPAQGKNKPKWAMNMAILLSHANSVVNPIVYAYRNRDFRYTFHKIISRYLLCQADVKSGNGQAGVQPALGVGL
As to the kind of experiment: functional cAMP (HTRF) assay, recombinant HEK293 cells expressing human A2B receptor, agonist NECA. Set-up: expressed in transfected cells; host or cells: HEK293.

The next test deals with T4, human A1 receptor (Homo sapiens, UniProt P30542).
T4 construct: expressed in transfected cells; host or cells: CHO
T4 sequence (P30542 1-326): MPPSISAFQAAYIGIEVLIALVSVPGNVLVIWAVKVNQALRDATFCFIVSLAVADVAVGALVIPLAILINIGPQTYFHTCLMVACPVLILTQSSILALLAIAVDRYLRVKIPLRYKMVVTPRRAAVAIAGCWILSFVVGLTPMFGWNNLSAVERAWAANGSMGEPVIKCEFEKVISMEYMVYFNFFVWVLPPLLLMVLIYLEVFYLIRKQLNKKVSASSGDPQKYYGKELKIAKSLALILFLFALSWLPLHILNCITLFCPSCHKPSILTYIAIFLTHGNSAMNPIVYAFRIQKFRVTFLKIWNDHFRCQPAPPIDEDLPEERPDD
As to the kind of experiment: functional cAMP (HTRF) assay, recombinant CHO cells expressing human A1 receptor, forskolin, agonist CPA. The essentials:
as §1

T1 sequence (P29274 whole entry): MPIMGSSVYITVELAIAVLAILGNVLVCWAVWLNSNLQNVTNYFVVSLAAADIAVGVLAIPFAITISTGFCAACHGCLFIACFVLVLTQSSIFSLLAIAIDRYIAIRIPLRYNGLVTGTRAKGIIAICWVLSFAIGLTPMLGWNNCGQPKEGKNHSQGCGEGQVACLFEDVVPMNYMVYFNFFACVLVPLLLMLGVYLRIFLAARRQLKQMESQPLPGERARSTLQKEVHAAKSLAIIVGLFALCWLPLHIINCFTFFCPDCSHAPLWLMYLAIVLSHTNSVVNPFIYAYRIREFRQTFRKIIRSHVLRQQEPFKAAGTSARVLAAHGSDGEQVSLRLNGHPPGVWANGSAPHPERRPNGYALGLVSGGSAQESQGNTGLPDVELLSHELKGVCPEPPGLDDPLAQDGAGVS

For the compound `COc1ccc(-c2cnn(C)c2)c2[nH]c(NC(=O)c3cnn(C)c3)nc12` [compound 160, N-[7-methoxy-4-(1-methyl-1H-pyrazol-4-yl)-1H-1,3-benzodiazol-2-yl]-1-methyl-1H-pyrazole-4-carboxamide], the IC50 is under 0.01 µM on human A2A receptor, under 0.1 µM at human A3 receptor, under 0.1 µM on A2B receptors and over 1 µM at human A1 receptor.

Take `COCCn1cc(C(=O)Nc2nc3c(-c4cnn(C)c4)ccc(OC)c3[nH]2)cn1` [compound 161, N-[7-methoxy-4-(1-methyl-1H-pyrazol-4-yl)-1H-1,3-benzodiazol-2-yl]-1-(2-methoxyethyl)-1H-pyrazole-4-carboxamide]: the IC50 on human A2A receptor was under 0.01 µM; at human A3 receptor, under 1 µM; on A2B receptors, under 1 µM; at human A1 receptor, over 1 µM.

In the case of `COc1ccc(-c2cnn(C)c2)c2nc(NC(=O)c3ccc(C(=O)N(C)C)nc3)[nH]c12` [compound 162, N5-[7-methoxy-4-(1-methyl-1H-pyrazol-4-yl)-1H-1,3-benzodiazo1-2-yl]-N2,N2-dimethylpyridine-2,5-dicarboxamide], the IC50 at human A2A receptor was under 0.1 µM; on human A3 receptor it was over 1 µM; on A2B receptors it was under 1 µM; at human A1 receptor it was over 1 µM.

Regarding `COc1ccc(-c2cnn(C)c2)c2nc(NC(=O)c3cnc(C)s3)[nH]c12` [compound 165, N-[7-methoxy-4-(1-methyl-1H-pyrazol-4-yl)-1H-1,3-benzodiazol-2-yl]-2-methyl-1,3-thiazole-5-carboxamide], the IC50 at human A2A receptor was under 0.01 µM; at human A3 receptor, under 0.01 µM; on A2B receptors, under 1 µM; at human A1 receptor it was under 1 µM.

With `COc1ccc(-c2cnn(C)c2)c2nc(NC(=O)c3ccc(CN4CCN(C)CC4)cc3)[nH]c12` [compound 168, N-[7-methoxy-4-(1-methyl-1H-pyrazol-4-yl)-1H-1,3-benzodiazol-2-yl]-4-[(4-methylpiperazin-1-yl)methyl]benzamide], the IC50 on human A2A receptor was under 0.01 µM; at human A3 receptor, under 1 µM; at A2B receptors it was over 1 µM; at human A1 receptor, over 1 µM.

For `COc1ccc(-c2cccc(F)c2)c2nc(NC(=O)N3CCC(C)(O)CC3)[nH]c12` [compound 217, N-[4-(3-fluorophenyl)-7-methoxy-1H-1,3-benzodiazol-2-yl]-4-hydroxy-4-methylpiperidine-1-carboxamide], the IC50 on human A2A receptor was under 0.01 µM; at human A3 receptor, over 1 µM; at A2B receptors it was under 0.1 µM; at human A1 receptor, under 1 µM.

In the case of `COc1ccc(-c2ccccc2F)c2nc(NC(=O)N3CCC(C)(O)CC3)[nH]c12` [compound 218, N-[4-(2-fluorophenyl)-7-methoxy-1H-1,3-benzodiazol-2-yl]-4-hydroxy-4-methylpiperidine-1-carboxamide], the IC50 on human A2A receptor is under 0.01 µM; at human A3 receptor, over 1 µM; on A2B receptors, under 0.1 µM; on human A1 receptor, under 1 µM.

Take `COc1ccc(-c2cnn(C)c2)c2nc(NC(=O)N3CC[C@H](F)C3)[nH]c12` [compound 221, (3S)-3-fluoro-N-[7-methoxy-4-(1-methyl-1H-pyrazol-4-yl)-1H-1,3-benzodiazol-2-yl]pyrrolidine-1-carboxamide]: the IC50 on human A2A receptor was under 0.01 µM; on human A3 receptor, over 1 µM; on A2B receptors, under 0.1 µM; on human A1 receptor, over 1 µM.

Turning to `COc1ccc(C2CCOCC2)c2nc(NC(=O)c3cnn(C)c3)[nH]c12` [compound 224, N-[7-methoxy-4-(oxan-4-yl)-1H-1,3-benzodiazol-2-yl]-1-methyl-1H-pyrazole-4-carboxamide], the IC50 at human A2A receptor is under 0.01 µM; on human A3 receptor, under 1 µM; on A2B receptors it was under 0.1 µM; at human A1 receptor, over 1 µM.

Turning to `COCCn1cc(C(=O)Nc2nc3c(C4CCOCC4)ccc(OC)c3[nH]2)cn1` [compound 225, N-[7-methoxy-4-(oxan-4-yl)-1H-1,3-benzodiazol-2-yl]-1-(2-methoxyethyl)-1H-pyrazole-4-carboxamide], the IC50 at human A2A receptor is under 0.01 µM; at human A3 receptor, over 1 µM; on A2B receptors it was under 0.1 µM; at human A1 receptor it was over 1 µM.

With `COCCOc1cccc(-c2ccc(OC)c3nc(NC(=O)N4CCC(C)(O)CC4)[nH]c23)c1` [compound 236, 4-hydroxy-N-{4-methoxy-7-[3-(2-methoxyethoxy)phenyl]-1H-1,3-benzodiazol-2-yl}-4-methylpiperidine-1-carboxamide], the IC50 at human A2A receptor was under 0.01 µM; at human A3 receptor it was under 1 µM; on A2B receptors, under 0.1 µM; at human A1 receptor, under 1 µM.

Take `COc1ccc(-c2cnn(Cc3cccnc3)c2)c2[nH]c(NC(=O)N3CCC(C)(O)CC3)nc12` [compound 237, 4-hydroxy-N-(4-methoxy-7-{1-[(pyridin-3-yl)methyl]-1H-pyrazol-4-yl}-1H-1,3-benzodiazol-2-yl)-4-methylpiperidine-1-carboxamide]: the IC50 on human A2A receptor was under 0.1 µM; on human A3 receptor, under 1 µM; at A2B receptors, under 0.1 µM; at human A1 receptor it was under 1 µM.

Turning to `COc1ccc(-c2cccc(F)c2)c2nc(NC(=O)c3ccc(C(=O)N(C)C)cc3)[nH]c12` [compound 240, N4-[4-(3-fluorophenyl)-7-methoxy-1H-1,3-benzodiazol-2-yl]-N1,N1-dimethylbenzene-1,4-dicarboxamide], the IC50 on human A2A receptor was under 0.01 µM; on human A3 receptor, under 1 µM; at A2B receptors it was under 0.01 µM; on human A1 receptor, under 1 µM.

With `COc1ccc(-c2ccccc2F)c2nc(NC(=O)c3ccc(C(=O)N(C)C)cc3)[nH]c12` [compound 242, N4-[4-(2-fluorophenyl)-7-methoxy-1H-1,3-benzodiazol-2-yl]-N1,N1-dimethylbenzene-1,4-dicarboxamide], the IC50 was under 0.01 µM at human A2A receptor, under 1 µM at human A3 receptor, under 0.01 µM at A2B receptors and under 1 µM at human A1 receptor.

As to `COc1ccc(-c2cnn(C)c2)c2nc(NC(=O)c3ccc(N4C(=O)CCC4=O)cc3)[nH]c12` [compound 248, 4-(2,5-dioxopyrrolidin-1-yl)-N-[7-methoxy-4-(1-methyl-1H-pyrazol-4-yl)-1H-1,3-benzodiazol-2-yl]benzamide], the IC50 is under 0.01 µM at human A2A receptor, over 1 µM at human A3 receptor, under 0.1 µM at A2B receptors and over 1 µM on human A1 receptor.

Turning to `COc1ccc(-c2ccccc2)c2nc(NC(=O)c3c[nH]cn3)[nH]c12` [compound 253, N-(7-methoxy-4-phenyl-1H-1,3-benzodiazol-2-yl)-1H-imidazole-4-carboxamide], the IC50 was under 0.01 µM on human A2A receptor, under 1 µM on human A3 receptor, under 0.01 µM on A2B receptors and under 1 µM at human A1 receptor.

For the compound `COc1ccc(-c2ccccc2)c2nc(NC(=O)c3c[nH]c(C)n3)[nH]c12` [compound 255, N-(7-methoxy-4-phenyl-1H-1,3-benzodiazol-2-yl)-2-methyl-1H-imidazole-4-carboxamide], the IC50 was under 0.01 µM at human A2A receptor, under 1 µM at human A3 receptor, under 0.01 µM on A2B receptors and under 1 µM on human A1 receptor.

`COc1ccc(-c2cccnc2)c2nc(NC(=O)c3ccc(C(=O)N(C)C)cc3)[nH]c12` [compound 259, N4-[7-methoxy-4-(pyridin-3-yl)-1H-1,3-benzodiazol-2-yl]-N1,N1-dimethylbenzene-1,4-dicarboxamide]: the IC50 is under 0.01 µM at human A2A receptor, over 1 µM at human A3 receptor, under 0.01 µM at A2B receptors and under 1 µM on human A1 receptor.

On to `COc1ccc(C2=CCOC2)c2nc(NC(=O)c3ccc(C(=O)N(C)C)cc3)[nH]c12` [compound 261, N4-[4-(2,5-dihydrofuran-3-yl)-7-methoxy-1H-1,3-benzodiazol-2-yl]-N1,N1-dimethylbenzene-1,4-dicarboxamide], for which the IC50 on human A2A receptor was under 0.01 µM; at human A3 receptor it was under 1 µM; on A2B receptors, under 0.01 µM; on human A1 receptor, over 1 µM.

As to `COc1cc(F)c(C2=CCOCC2)c2nc(NC(=O)c3ccc(C(=O)N(C)C)cc3)[nH]c12` [compound 262, N4-[4-(3,6-dihydro-2H-pyran-4-yl)-5-fluoro-7-methoxy-1H-1,3-benzodiazol-2-yl]-N1,N1-dimethylbenzene-1,4-dicarboxamide], the IC50 was under 0.01 µM at human A2A receptor, under 1 µM at human A3 receptor, under 0.01 µM on A2B receptors and over 1 µM at human A1 receptor.
